Assay results: ChEMBL document CHEMBL1629655, “Affinity of Tomopenem (CS-023) for penicillin-binding proteins in Staphylococcus aureus, Escherichia coli, and Pseudomonas aeruginosa” (Antimicrob Agents Chemother, 2009)
Converted amounts (≈) assume the structure as drawn.

Columns and labels:
Staphylococcus aureus [1] = experiment: Ratio of MIC for Staphylococcus aureus SIR2a selected at 2 times MIC of imipenem to MIC for Staphylococcus aureus ATCC 6538P; type: functional
Staphylococcus aureus [2] = experiment: Antibacterial activity against Staphylococcus aureus SMR4a […] MIC of meropenem by microdilution method; type: functional
Pseudomonas aeruginosa [3] = experiment: Antibacterial activity against Pseudomonas aeruginosa PIR2a selected at 2 times MIC of imipenem by microdilution method; type: functional
Escherichia coli [4] = experiment: Ratio of MIC for Escherichia coli ERR2b to MIC for Escherichia coli NIHJ; type: functional
Staphylococcus aureus [5] = experiment: Antibacterial activity against Staphylococcus aureus SIR2a selected at 2 times MIC of imipenem by microdilution method; type: functional
Staphylococcus aureus [6] = experiment: Ratio of MIC for Staphylococcus aureus SMR2a to MIC for Staphylococcus aureus ATCC 6538P; type: functional
Staphylococcus aureus [7] = experiment: Antibacterial activity against Staphylococcus aureus SMR2a selected at 2 times MIC of meropenem by microdilution method; type: functional
Staphylococcus aureus [8] = experiment: Ratio of MIC for Staphylococcus aureus SRR2a to MIC for Staphylococcus aureus ATCC 6538P; type: functional
Staphylococcus aureus [9] = experiment: Ratio of MIC for Staphylococcus aureus SMR4a to MIC for Staphylococcus aureus ATCC 6538P; type: functional
Staphylococcus aureus [10] = experiment: Antibacterial activity against Staphylococcus aureus SRR2a selected at 2 times MIC of tomopenem by microdilution method; type: functional
Pseudomonas aeruginosa [11] = experiment: Antibacterial activity against Pseudomonas aeruginosa PMR2a selected at 2 times MIC of meropenem by microdilution method; type: functional
Escherichia coli [12] = experiment: Antibacterial activity against Escherichia coli EMR2a selected at 2 times MIC of meropenem by microdilution method; type: functional
Pseudomonas aeruginosa [13] = experiment: Antibacterial activity against Pseudomonas aeruginosa ATCC 15692 by microdilution method; type: functional, organism-based
[14] = Displacement of [14C]benzylpenicillin from PBP 5 in Pseudomonas aeruginosa ATCC 15692
[15] = Displacement of [14C]benzylpenicillin from PBP2 in Escherichia coli NIHJ
[16] = Displacement of [14C]benzylpenicillin from PBP1B in Escherichia coli NIHJ
Pseudomonas aeruginosa [17] = experiment: Ratio of MIC for Pseudomonas aeruginosa PIR2a to MIC for Pseudomonas aeruginosa ATCC 15692; type: functional
Escherichia coli [18] = experiment: Antibacterial activity against Escherichia coli EIR2b selected at 2 times MIC of imipenem by microdilution method; type: functional
Escherichia coli [19] = experiment: Antibacterial activity against Escherichia coli ERR4a selected at 4 times MIC of tomopenem by microdilution method; type: functional
Escherichia coli [20] = experiment: Antibacterial activity against Escherichia coli ERR2a selected at 2 times MIC of tomopenem by microdilution method; type: functional
Escherichia coli [21] = experiment: Antibacterial activity against Escherichia coli ERR8a selected at 8 times MIC of tomopenem by microdilution method; type: functional
[22] = Displacement of [14C]benzylpenicillin from PBP2 Staphylococcus aureus ATCC 6538P
Escherichia coli [23] = experiment: Antibacterial activity against Escherichia coli EIR8a selected at 8 times MIC of imipenem by microdilution method; type: functional
[24] = Displacement of [14C]benzylpenicillin from PBP 6 in Pseudomonas aeruginosa ATCC 15692
Escherichia coli [25] = experiment: Ratio of MIC for Escherichia coli EIR4a to MIC for Escherichia coli NIHJ; type: functional
Escherichia coli [26] = experiment: Antibacterial activity against Escherichia coli EIR2a selected at 2 times MIC of imipenem by microdilution method; type: functional
Pseudomonas aeruginosa [27] = experiment: Ratio of MIC for Pseudomonas aeruginosa PRR4a to MIC for Pseudomonas aeruginosa ATCC 15692; type: functional
[28] = Displacement of [14C]benzylpenicillin from PBP3 in Escherichia coli NIHJ
Escherichia coli [29] = experiment: Ratio of MIC for Escherichia coli EMR2a to MIC for Escherichia coli NIHJ; type: functional
[30] = Displacement of [14C]benzylpenicillin from PBP4 in Staphylococcus aureus ATCC 6538P
[31] = Displacement of [14C]benzylpenicillin from PBP1 in Staphylococcus aureus ATCC 6538P
Escherichia coli [32] = experiment: Ratio of MIC for Escherichia coli EIR4b to MIC for Escherichia coli NIHJ; type: functional
Escherichia coli [33] = experiment: Ratio of MIC for Escherichia coli EIR2b to MIC for Escherichia coli NIHJ; type: functional
[34] = Displacement of [14C]benzylpenicillin from PBP2 in Pseudomonas aeruginosa ATCC 15692
[35] = Displacement of [14C]benzylpenicillin from PBP6 Escherichia coli NIHJ
Escherichia coli [36] = experiment: Ratio of MIC for Escherichia coli EIR2a to MIC for Escherichia coli NIHJ; type: functional
Escherichia coli [37] = experiment: Ratio of MIC for Escherichia coli ERR4a to MIC for Escherichia coli NIHJ; type: functional
Escherichia coli [38] = experiment: Ratio of MIC for Escherichia coli ERR2a selected to MIC for Escherichia coli NIHJ; type: functional
Escherichia coli [39] = experiment: Ratio of MIC for Escherichia coli ERR8a to MIC for Escherichia coli NIHJ; type: functional
[40] = Displacement of [14C]benzylpenicillin from PBP4 in Pseudomonas aeruginosa ATCC 15692
[41] = Displacement of [14C]benzylpenicillin from PBP1B in Pseudomonas aeruginosa ATCC 15692
Escherichia coli [42] = experiment: Antibacterial activity against Escherichia coli EIR4b selected at 4 times MIC of imipenem by microdilution method; type: functional
Escherichia coli [43] = experiment: Antibacterial activity against Escherichia coli EIR4a selected at 4 times MIC of imipenem by microdilution method; type: functional
[44] = Displacement of [14C]benzylpenicillin from PBP1A in Escherichia coli NIHJ
[45] = Displacement of [14C]benzylpenicillin from PBP3 in Pseudomonas aeruginosa ATCC 15692
[46] = Displacement of [14C]benzylpenicillin from PBP3 in Staphylococcus aureus ATCC 6538P
Escherichia coli [47] = experiment: Ratio of MIC for Escherichia coli EIR8a to MIC for Escherichia coli NIHJ; type: functional
Escherichia coli [48] = experiment: Antibacterial activity against Escherichia coli NIHJ by microdilution method; type: functional, organism-based
[49] = Displacement of [14C]benzylpenicillin from PBP1A in Pseudomonas aeruginosa ATCC 15692
Staphylococcus aureus [50] = experiment: Antibacterial activity against Staphylococcus aureus ATCC 6538P by microdilution method; type: functional, organism-based
[51] = Displacement of [14C]benzylpenicillin from PBP5 in Escherichia coli NIHJ
Pseudomonas aeruginosa [52] = experiment: Ratio of MIC for Pseudomonas aeruginosa PMR2a to MIC for Pseudomonas aeruginosa ATCC 15692; type: functional
Pseudomonas aeruginosa [53] = experiment: Antibacterial activity against Pseudomonas aeruginosa PRR4a selected at 4 times MIC of tomopenem by microdilution method; type: functional
[54] = Displacement of [14C]benzylpenicillin from PBP4 in Escherichia coli NIHJ
Escherichia coli [55] = experiment: Antibacterial activity against Escherichia coli ERR2b selected at 2 times MIC of tomopenem by microdilution method; type: functional

Compound: C[C@H]1COc2c(N3CCN(C)CC3)c(F)cc3c(=O)c(C(=O)O)cn1c23.C[C@H]1COc2c(N3CCN(C)CC3)c(F)cc3c(=O)c(C(=O)O)cn1c23.O [LEVOFLOXACIN]
- Ratio MIC (Staphylococcus aureus [1]): 1
- MIC (Staphylococcus aureus [2]): 0.06 µg/mL
- MIC (Pseudomonas aeruginosa [3]): 0.5 µg/mL
- Ratio MIC (Escherichia coli [4]): 2
- MIC (Staphylococcus aureus [5]): 0.06 µg/mL
- Ratio MIC (Staphylococcus aureus [6]): 2
- MIC (Staphylococcus aureus [7]): 0.12 µg/mL
- Ratio MIC (Staphylococcus aureus [8]): 2
- ratio (Staphylococcus aureus [9]): 1
- MIC (Staphylococcus aureus [10]): 0.12 µg/mL

Compound: C[C@@H](O)[C@H]1C(=O)N2C(C(=O)O)=C(S[C@@H]3CN[C@H](C(=O)N(C)C)C3)[C@H](C)[C@H]12 [MEROPENEM]
- MIC (Pseudomonas aeruginosa [11]): 8 µg/mL
- Ratio MIC (Staphylococcus aureus [1]): 4
- MIC (Staphylococcus aureus [2]): 0.25 µg/mL
- MIC (Escherichia coli [12]): 0.06 µg/mL
- MBC (Pseudomonas aeruginosa [13]): 1 µg/mL (≈ 2.61 µM)
- MIC (Pseudomonas aeruginosa [13]): 1 µg/mL (≈ 2.61 µM)
- IC50 [14]: 4.5 µg/mL (≈ 11.7 µM)
- IC50 [15]: 0.016 µg/mL (≈ 0.0417 µM)
- MIC (Pseudomonas aeruginosa [3]): 4 µg/mL
- IC50 [16]: 0.77 µg/mL (≈ 2.01 µM)
- Ratio MIC (Pseudomonas aeruginosa [17]): 8
- MIC (Escherichia coli [18]): 0.03 µg/mL
- Ratio MIC (Escherichia coli [4]): 2
- MIC (Escherichia coli [19]): 0.06 µg/mL
- MIC (Escherichia coli [20]): 0.03 µg/mL
- MIC (Escherichia coli [21]): 0.06 µg/mL
- IC50 [22]: 0.26 µg/mL (≈ 0.678 µM)
- MIC (Escherichia coli [23]): 0.03 µg/mL
- IC50 [24]: 4.5 µg/mL (≈ 11.7 µM)
- Ratio MIC (Escherichia coli [25]): 1
- MIC (Escherichia coli [26]): 0.03 µg/mL
- Ratio MIC (Pseudomonas aeruginosa [27]): 4
- IC50 [28]: 0.39 µg/mL (≈ 1.02 µM)
- Ratio MIC (Escherichia coli [29]): 2
- IC50 [30]: 0.071 µg/mL (≈ 0.185 µM)
- MIC (Staphylococcus aureus [5]): 0.12 µg/mL
- Ratio MIC (Staphylococcus aureus [6]): 8
- IC50 [31]: 0.044 µg/mL (≈ 0.115 µM)
- Ratio MIC (Escherichia coli [32]): 4
- Ratio MIC (Escherichia coli [33]): 1
- IC50 [34]: 0.018 µg/mL (≈ 0.0469 µM)
- IC50 [35]: 15 µg/mL (≈ 39.1 µM)
- Ratio MIC (Escherichia coli [36]): 1
- Ratio MIC (Escherichia coli [37]): 2
- Ratio MIC (Escherichia coli [38]): 1
- MIC (Staphylococcus aureus [7]): 0.25 µg/mL
- Ratio MIC (Escherichia coli [39]): 2
- IC50 [40]: 0.0033 µg/mL (≈ 0.00861 µM)
- IC50 [41]: 0.11 µg/mL (≈ 0.287 µM)
- Ratio MIC (Staphylococcus aureus [8]): 8
- MIC (Escherichia coli [42]): 0.12 µg/mL
- MIC (Escherichia coli [43]): 0.03 µg/mL
- IC50 [44]: 0.82 µg/mL (≈ 2.14 µM)
- IC50 [45]: 0.013 µg/mL (≈ 0.0339 µM)
- IC50 [46]: > 130 µg/mL
- Ratio MIC (Escherichia coli [47]): 1
- MBC (Escherichia coli [48]): 0.03 µg/mL (≈ 0.0782 µM)
- MIC (Escherichia coli [48]): 0.03 µg/mL (≈ 0.0782 µM)
- IC50 [49]: 0.12 µg/mL (≈ 0.313 µM)
- IC50 (Staphylococcus aureus [50]): 0.06 µg/mL (≈ 0.156 µM)
- MBC (Staphylococcus aureus [50]): 0.12 µg/mL (≈ 0.313 µM)
- MIC (Staphylococcus aureus [50]): 0.06 µg/mL (≈ 0.156 µM)
- IC50 [51]: 1.2 µg/mL (≈ 3.13 µM)
- Ratio MIC (Pseudomonas aeruginosa [52]): 16
- MIC (Pseudomonas aeruginosa [53]): 2 µg/mL
- IC50 [54]: 0.047 µg/mL (≈ 0.123 µM)
- ratio (Staphylococcus aureus [9]): 8
- MIC (Staphylococcus aureus [10]): 0.25 µg/mL
- MIC (Escherichia coli [55]): 0.06 µg/mL
